Patent publication US10980822B2, “Medicinal composition comprising SGLT-2 inhibitor and angiotensin receptor blocker” (AUTOTELIC BIO INC., priority 2017, dated 2021)

Legend:
[1] = test system: spontaneously hypertensive rats (SHRs); assay: 2-week evaluation of blood pressure lowering effect (non-invasive tail blood pressure, CODA-6); type: in vivo, rat; details: olmesartan medoxomil 1, valsartan 4, telmisartan 4, dapagliflozin (as propylene glycol hydrate) 1 mg/kg/day; for Systolic blood pressure immediately before administration: 10-week-old SHR, baseline, mean of 5 rats; for Size of blood pressure reduction / Systolic blood pressure at 14th day after administration: SHR; for Size of blood pressure reduction: 14th day versus before administration; for Systolic blood pressure at 14th day after administration: once daily for 14 days, measured 2 hours after dosing
Protocol: The SHR rats are rats derived from Wistar Kyoto WKY) rats with normal blood pressure, and are rats that spontaneously develop hypertension with aging without any artificial treatment. […] The blood pressure in the experimental animals was measured using a CODA-6 system (Kent Scientific Corp.) which is a non-invasive blood pressure (NIBP) measurement system. […] The rats were divided into total 7 groups according to the kind of drug to be administered, and five rats were randomly assigned to each group. The groups administered with each drug are as follows: (2) a group administered with 1 mg/kg/day of olmesartan medoxomil alone; (3) a group administered with 4 mg/kg/day of valsartan alone; (4) a group administered with 4 mg/kg/day of telmisartan alone; (5) a group administered with a combination of 1 mg/kg/day of olmesartan medoxomil+1 mg/kg/day of dapagliflozin; (6) a group administered with a combination of 4 mg/kg/day of valsartan+1 mg/kg/day of dapagliflozin; (7) a group administered with a combination of 4 mg/kg/day of telmisartan+1 mg/kg/day of dapagliflozin. (*In this Example, a dapagliflozin propylene glycol hydrate corresponding to 1 mg of dapagliflozin was administered actually). For drug administration, each drug was administered to each rat once a day at a predetermined dose at the same time every morning. Considering that the amounts of antihypertensive drugs used in humans are different, the antihypertensive drugs were administered at different doses.

[2] = test system: SHR rats; assay: 4-week evaluation of blood pressure lowering effect (non-invasive tail systolic and diastolic blood pressure); type: in vivo, rat; details: for Diastolic blood pressure at 1st week after administration / Diastolic blood pressure at 2nd week after administration / Diastolic blood pressure at 3rd week after administration / Diastolic blood pressure at 4th week after administration / Systolic blood pressure at 1st week after administration / Systolic blood pressure at 2nd week after administration / Systolic blood pressure at 3rd week after administration / Systolic blood pressure at 4th week after administration: oral once daily; for Diastolic blood pressure immediately after administration / Systolic blood pressure immediately after administration: oral, mean of 8 rats
Protocol: As experimental animals, 6-week-old male SHR rats were used (however, WKY rats were used as a normal control). A method for measurement of blood pressure is as follows: […] The rats were divided into total 7 groups according to the kind of drug to be administered, and eight rats were randomly assigned to each group. The groups administered with each drug are as follows: (3) a group administered with test substance 1 (G3): a group administered with a combination of 2 mg/kg/day of olmesartan medoxomil+1 mg/kg/day of dapagliflozin; (4) a group administered with test substance 2 (G4): a group administered with a combination of 2 mg/kg/day of olmesartan medoxomil+3 mg/kg/day of dapagliflozin; (5) a group administered with comparative substance 1 (G5): a group administered with 2 mg/kg/day of olmesartan medoxomil alone; (6) a group administered with comparative substance 2 (G6): a group administered with 1 mg/kg/day of dapagliflozin alone; (7) a group administered with […]: a group administered with 3 mg/kg/day of dapagliflozin alone. (* In this Experimental Example, dapagliflozin was administered in an anhydride form, not a solvate form). For drug administration, each drug was forcibly administered into the rat's stomach through a disposable syringe with an oral zonde at a predetermined dose at the same time every day. As test substances, olmesartan medoxomil was administered, and then immediately dapagliflozin was administered. The doses of the antihypertensive drug and the antidiabetic drug were determined considering the doses to be applied in clinical practice.

[3] = SHR, 1st to 4th week, olmesartan medoxomil 2 mg/kg/day with (G3) or without (G5) dapagliflozin 1 mg/kg/day
[4] = SHR, olmesartan medoxomil 2 mg/kg/day and/or dapagliflozin 1 mg/kg/day (G3, G5, G6)
[5] = p<0.01 at 1st, 2nd, 3rd and 4th week, olmesartan medoxomil 2 mg/kg/day with (G3) or without (G5) dapagliflozin 1 mg/kg/day
[6] = SHR, dapagliflozin 3 mg/kg/day with (G4) or without (G7) olmesartan medoxomil 2 mg/kg/day

Row | SMILES | Systolic blood pressure immediately before administration [1] [mmHg] | Size of blood pressure reduction [1] [mmHg] | Systolic blood pressure at 14th day after administration [1] [mmHg] | Diastolic blood pressure at 1st week after administration [2, 4] [mmHg] | Diastolic blood pressure at 2nd week after administration [2, 4] [mmHg] | Diastolic blood pressure at 3rd week after administration [2, 4] [mmHg] | Diastolic blood pressure at 4th week after administration [2, 4] [mmHg] | Systolic blood pressure at 1st week after administration [2, 4] [mmHg] | Systolic blood pressure at 2nd week after administration [2, 4] [mmHg] | Systolic blood pressure at 3rd week after administration [2, 4] [mmHg] | Systolic blood pressure at 4th week after administration [2, 4] [mmHg] | Diastolic blood pressure immediately after administration [2, 4] [mmHg] | Systolic blood pressure immediately after administration [2, 4] [mmHg] | further results
1 | CCCc1nc(C(C)(C)O)c(C(=O)OCc2oc(=O)oc2C)n1Cc1ccc(-c2ccccc2-c2nnn[nH]2)cc1 [Olmesartan medoxomil, olmesartan medoxomil] | 202 | 39 | 163 | 127 | 153 | 153 | 172 | 159 | 181 | 178 | 190 | 140 | 171 | Range of mean diastolic blood pressure [2, 3]: 127 to 172 mmHg; Range of mean systolic blood pressure [2, 3]: 159 to 190 mmHg; Mean diastolic blood pressure compared with negative control group (G2) [2, 5]: statistically significantly lower; Mean systolic blood pressure compared with negative control group (G2) [2, 5]: statistically significantly lower
2 | CCCc1nc2c(C)cc(-c3nc4ccccc4n3C)cc2n1Cc1ccc(-c2ccccc2C(=O)O)cc1 [Telmisartan, telmisartan] | 203 | 35 | 168 |  |  |  |  |  |  |  |  |  |  | 
3 | CCCCC(=O)N(Cc1ccc(-c2ccccc2-c2nnn[nH]2)cc1)[C@H](C(=O)O)C(C)C [Valsartan, valsartan] | 200 | 30 | 170 |  |  |  |  |  |  |  |  |  |  | 
4 | CCOc1ccc(Cc2cc([C@@H]3O[C@H](CO)[C@@H](O)[C@H](O)[C@H]3O)ccc2Cl)cc1 [dapagliflozin] |  |  |  | 154 | 179 | 175 | 187 | 185 | 213 | 204 | 211 | 142 | 172 | Diastolic blood pressure at 1st week after administration [2, 6]: 149 mmHg; Diastolic blood pressure at 2nd week after administration [2, 6]: 188 mmHg; Diastolic blood pressure at 3rd week after administration [2, 6]: 204 mmHg; Diastolic blood pressure at 4th week after administration [2, 6]: 186 mmHg; Systolic blood pressure at 1st week after administration [2, 6]: 189 mmHg; Systolic blood pressure at 2nd week after administration [2, 6]: 219 mmHg; Systolic blood pressure at 3rd week after administration [2, 6]: 228 mmHg; Systolic blood pressure at 4th week after administration [2, 6]: 212 mmHg; Diastolic blood pressure immediately after administration [2, 6]: 139 mmHg; Systolic blood pressure immediately after administration [2, 6]: 172 mmHg
